Source: patent US11007148B2, “Amphiphilic block copolymers for delivery of active agents” (priority 2014, dated 2021)
Structures can show the parent of a compound that is named as a salt.

How the values were obtained:
[1] = mouse, in vivo
Source text: In this example the kinetic properties of loaded micelles with PTX are studied in vivo using the fluorophore labels Cy7 and Cy5.5. Cy7 was covalently linked to the polymer chain and reports about the fate of the injected micelles; Cy5.5 was physically loaded in the core of the micelles and used as a modal drug.
CD-1 nude female mice (n=5) were fed with chlorophyll-free food pellets and water ad libitum, and caged in ventilated cages and clinically controlled rooms and atmosphere.

[2] = free drug; cited from earlier work

| Compound | half-life of the Cy5.5 label relative to the micelles [1] | Log P [2] |
| --- | --- | --- |
| Cy5.5 | shorter half-life |  |
| COc1cccc2c1C(=O)c1c(O)c3c(c(O)c1C2=O)C[C@@](O)(C(=O)CO)C[C@@H]3O[C@H]1C[C@H](N)[C@H](O)[C@H](C)O1 [DOX•HCl, doxorubicin hydrochloride] |  | 2.82 |
| CC(=O)O[C@H]1C(=O)[C@@]2(C)[C@H]([C@H](OC(=O)c3ccccc3)[C@]3(O)C[C@H](OC(=O)[C@H](O)[C@@H](NC(=O)c4ccccc4)c4ccccc4)C(C)=C1C3(C)C)[C@]1(OC(C)=O)CO[C@@H]1C[C@@H]2O [Paclitaxel] |  | 4.7 |
| C[C@H](NC(=O)Cc1cc(F)cc(F)c1)C(=O)N[C@H](C(=O)OC(C)(C)C)c1ccccc1 [DAPT] |  | 3.54 |
| COc1nc2ccc(Br)cc2cc1[C@@H](c1ccccc1)[C@@](O)(CCN(C)C)c1cccc2ccccc12 [Bedaquiline] |  | 7.59 |
